Reference: patent publication US11051515B2, “3-acyl-benzamides and their use as herbicides” (Bayer Aktiengesellschaft, priority 2017, dated 2021)

What was measured:
[1] = tested on: VIOTR; assay: Post-emergence action against VIOTR; format: in vivo, Viola tricolor; conditions: Viola tricolor, 504 h; post-emergence, dosage 80 g/ha
In short: (§1)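 Weeds grown in sandy loam in greenhouse, treated at one-leaf stage (2–3 weeks after sowing) with WP or EC formulations sprayed as aqueous suspension/emulsion at 600 to […] water with 0.2% wetting agent. Visual rating after about 3 weeks versus untreated controls, as % herbicidal action (100% = plants dead, 0% = like control).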

[2] = tested on: LOLMU; assay: Post-emergence action against LOLMU; format: in vivo, Lolium multiflorum; conditions: Lolium multiflorum, 504 h, dosage 80 g/ha, visual assessment about 3 weeks after treatment vs untreated controls, read-out: Post-emergence action against LOLMU (herbicidal action in percent)
Protocol: Seeds of monocotyledonous and dicotyledonous weed and crop plants are laid out in sandy loam soil in wood-fiber pots, covered with soil and cultivated in a greenhouse under good growth conditions. 2 to 3 weeks after sowing, the test plants are treated at the one-leaf stage. The compounds of the invention, formulated in the form of wettable powders (WP) or as emulsion concentrates (EC), are then sprayed onto the green parts of the plants in the form of an aqueous suspension or emulsion at a water application rate equating to […], with addition of 0.2% wetting agent. After the test plants have been left to stand in the greenhouse under optimal growth conditions for about 3 weeks, the action of the preparations is assessed visually in comparison to untreated controls (herbicidal action in percent (%): 100% activity=the plants have died, 0% activity=like control plants). […] At the same time, inventive compounds leave Gramineae crops such as barley, wheat, rye, millet/Sorghum, corn or rice virtually undamaged when applied post-emergence, even at high active ingredient dosages. In addition, some substances are also harmless to dicotyledonous crops such as soya, cotton, oilseed rape, sugar beet or potatoes. Some of the compounds according to the invention have high selectivity and are therefore suitable for controlling unwanted vegetation in agricultural crops by the post-emergence method. The data of Tables B18 to B34 below illustrate, in an exemplary manner, the […] herbicidal action of the compounds according to the invention, the herbicidal activity being stated in percent.

[3] = tested on: ECHCG; assay: Post-emergence action against ECHCG; format: in vivo, Echinochloa crus-galli; conditions: Echinochloa crus-galli, 504 h; post-emergence, dosage 80 g/ha, visual assessment about 3 weeks after treatment vs untreated controls; read-out: Post-emergence action against ECHCG (herbicidal action in percent)
In short: as §1

[4] = tested on: AVEFA; assay: Post-emergence action against AVEFA; format: in vivo, Avena fatua; conditions: Avena fatua, 504 h; post-emergence, dosage 80 g/ha, visual assessment about 3 weeks after treatment vs untreated controls; read-out: Post-emergence action against AVEFA (herbicidal action in percent)
In short: as §1

[5] = tested on: ALOMY; assay: Pre-emergence action against ALOMY; format: in vivo, Alopecurus myosuroides; conditions: Alopecurus myosuroides, 504 h; dosage 320 g/ha; pre-emergence; scored visually after 3 weeks vs untreated controls; 100% = plants have died, 0% = like control plants; read-out: Pre-emergence action against ALOMY (herbicidal activity in percent)
In short: (§2)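 Seeds sown in sandy loam in wood-fiber pots and covered with soil. Greenhouse growth; visual damage scored after 3 weeks versus untreated controls (100% = dead, 0% = like control).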

[6] = tested on: ABUTH; assay: Pre-emergence action against ABUTH; format: in vivo, Abutilon theophrasti; conditions: Abutilon theophrasti, 504 h; pre-emergence, dosage 320 g/ha, scored visually after 3 weeks vs untreated controls; read-out: Pre-emergence action against ABUTH (herbicidal activity)
In short: as §2

[7] = tested on: VERPE; assay: Pre-emergence action against VERPE; format: in vivo, Veronica persica; conditions: Veronica persica, 504 h; Dosage 320 g/ha, pre-emergence
In short: as §2

[8] = tested on: STEME; assay: Post-emergence action against STEME; format: in vivo, Stellaria media; conditions: Stellaria media, 504 h; post-emergence, dosage 80 g/ha
In short: as §1

[9] = tested on: ABUTH; assay: Post-emergence action against ABUTH; format: in vivo, Abutilon theophrasti; conditions: Abutilon theophrasti, 504 h; post-emergence, dosage 80 g/ha, visual assessment about 3 weeks after treatment vs untreated controls; read-out: Post-emergence action against ABUTH (herbicidal action in percent)
In short: as §1

[10] = tested on: PHBPU; assay: Pre-emergence action against PHBPU; format: in vivo, Pharbitis purpurea; conditions: Ipomoea purpurea, 504 h; Dosage 320 g/ha, pre-emergence
In short: as §2

[11] = tested on: AMARE; assay: Pre-emergence action against AMARE; format: in vivo, Amaranthus retroflexus; conditions: Amaranthus retroflexus, 504 h; pre-emergence, dosage 320 g/ha, scored visually after 3 weeks vs untreated controls; read-out: Pre-emergence action against AMARE (herbicidal activity)
In short: as §2

[12] = tested on: ECHCG; assay: Pre-emergence action against ECHCG; format: in vivo, Echinochloa crus-galli; conditions: Echinochloa crus-galli, 504 h; pre-emergence, dosage 320 g/ha, scored visually after 3 weeks vs untreated controls; read-out: Pre-emergence action against ECHCG (herbicidal activity)
In short: as §2

[13] = tested on: SETVI; assay: Post-emergence action against SETVI; format: in vivo, Setaria viridis; conditions: Setaria viridis, 504 h; post-emergence, dosage 80 g/ha, visual assessment about 3 weeks after treatment vs untreated controls; read-out: Post-emergence action against SETVI (herbicidal action in percent)
In short: as §1

[14] = tested on: AVEFA; assay: Pre-emergence action against AVEFA; format: in vivo, Avena fatua; conditions: Avena fatua, 504 h, dosage 320 g/ha, scored visually after 3 weeks vs untreated controls, read-out: Pre-emergence action against AVEFA (herbicidal activity)
In short: as §2

[15] = tested on: MATIN; assay: Pre-emergence action against MATIN; format: in vivo, Matricaria inodora; conditions: Tripleurospermum inodorum, 504 h; Dosage 320 g/ha, pre-emergence
In short: as §2

[16] = tested on: POLCO; assay: Post-emergence action against POLCO; format: in vivo, Polygonum convolvulus; conditions: Fallopia convolvulus, 504 h; post-emergence, dosage 80 g/ha
In short: as §1

[17] = tested on: CYPES; assay: Pre-emergence action against CYPES; format: in vivo, Cyperus esculentus; conditions: Cyperus esculentus, 504 h; pre-emergence, dosage 320 g/ha, scored visually after 3 weeks vs untreated controls; read-out: Pre-emergence action against CYPES (herbicidal activity)
In short: as §2

[18] = tested on: MATIN; assay: Post-emergence action against MATIN; format: in vivo, Matricaria inodora; conditions: Tripleurospermum inodorum, 504 h; post-emergence, dosage 80 g/ha, visual assessment about 3 weeks after treatment vs untreated controls; read-out: Post-emergence action against MATIN (herbicidal action in percent)
In short: as §1

[19] = tested on: AMARE; assay: Post-emergence action against AMARE; format: in vivo, Amaranthus retroflexus; conditions: Amaranthus retroflexus, 504 h; post-emergence, dosage 80 g/ha, visual assessment about 3 weeks after treatment vs untreated controls; read-out: Post-emergence action against AMARE (herbicidal action in percent)
In short: as §1

[20] = tested on: PHBPU; assay: Post-emergence action against PHBPU; format: in vivo, Pharbitis purpurea; conditions: Ipomoea purpurea, 504 h; post-emergence, dosage 80 g/ha
In short: as §1

[21] = tested on: SETVI; assay: Pre-emergence action against SETVI; format: in vivo, Setaria viridis; conditions: Setaria viridis, 504 h; pre-emergence, dosage 320 g/ha, scored visually after 3 weeks vs untreated controls; read-out: SETVI (Table B8, pre-emergence herbicidal activity)
In short: as §2

[22] = tested on: VIOTR; assay: Pre-emergence action against VIOTR; format: in vivo, Viola tricolor; conditions: Viola tricolor, 504 h; Dosage 320 g/ha, pre-emergence
In short: as §2

[23] = tested on: ALOMY; assay: Post-emergence action against ALOMY; format: in vivo, Alopecurus myosuroides; conditions: Alopecurus myosuroides, 504 h; Dosage 80 g/ha, post-emergence
In short: as §1

[24] = tested on: CYPES; assay: Post-emergence action against CYPES; format: in vivo, Cyperus esculentus; conditions: Cyperus esculentus, 504 h; post-emergence, dosage 80 g/ha, visual assessment about 3 weeks after treatment vs untreated controls; read-out: Post-emergence action against CYPES (herbicidal action in percent)
In short: as §1

[25] = tested on: VERPE; assay: Post-emergence action against VERPE; format: in vivo, Veronica persica; conditions: Veronica persica, 504 h, dosage 80 g/ha
In short: as §1

[26] = tested on: STEME; assay: Pre-emergence action against STEME; format: in vivo, Stellaria media; conditions: Stellaria media, 504 h; Dosage 320 g/ha, pre-emergence
In short: as §2

[27] = tested on: LOLMU; assay: Pre-emergence action against LOLMU; format: in vivo, Lolium multiflorum; conditions: Lolium multiflorum, 504 h, dosage 320 g/ha, scored visually after 3 weeks vs untreated controls, read-out: Pre-emergence action against LOLMU (herbicidal activity)
In short: as §2

[28] = tested on: POLCO; assay: Pre-emergence action against POLCO; format: in vivo, Polygonum convolvulus; conditions: Fallopia convolvulus, 504 h; Dosage 320 g/ha, pre-emergence
In short: as §2

| SMILES | pest or weed control at 80 g/ha [1] [%] | pest or weed control at 80 g/ha [2] [%] | pest or weed control at 80 g/ha [3] [%] | pest or weed control at 320 g/ha [5] [%] | pest or weed control at 320 g/ha [6] [%] | pest or weed control at 320 g/ha [7] [%] | pest or weed control at 80 g/ha [8] [%] | pest or weed control at 80 g/ha [9] [%] | pest or weed control at 320 g/ha [10] [%] | pest or weed control at 320 g/ha [11] [%] | pest or weed control at 320 g/ha [12] [%] | pest or weed control at 80 g/ha [13] [%] | pest or weed control at 320 g/ha [14] [%] | pest or weed control at 320 g/ha [15] [%] | pest or weed control at 80 g/ha [16] [%] | pest or weed control at 320 g/ha [17] [%] | pest or weed control at 80 g/ha [18] [%] | pest or weed control at 80 g/ha [19] [%] | pest or weed control at 80 g/ha [20] [%] | pest or weed control at 320 g/ha [21] [%] | further results |
| --- | --- | --- | --- | --- | --- | --- | --- | --- | --- | --- | --- | --- | --- | --- | --- | --- | --- | --- | --- | --- | --- |
| CCC(=O)c1c(C(F)(F)F)ccc(C(=O)Nc2nnnn2C)c1Cl [1-138] | 100 | 100 | 90 | 100 | 100 | 100 | 100 | 80 | 90 | 100 | 100 | 90 | 100 | 100 | 80 | 100 | 100 | 80 | 100 | 100 | pest or weed control at 80 g/ha [4]: 100%; pest or weed control at 320 g/ha [22]: 100%; pest or weed control at 80 g/ha [23]: 100%; pest or weed control at 80 g/ha [24]: 90%; pest or weed control at 80 g/ha [25]: 90% |
| CCC(=O)c1c(Cl)ccc(C(=O)Nc2nnnn2C)c1Cl [1-115] | 100 | 90 | 90 | 100 | 100 | 100 | 100 | 90 | 90 | 100 | 100 | 90 | 100 | 100 | 100 | 100 | 100 | 90 | 90 | 90 | pest or weed control at 320 g/ha [26]: 100%; pest or weed control at 320 g/ha [27]: 100%; pest or weed control at 320 g/ha [28]: 80%; pest or weed control at 80 g/ha [23]: 90%; pest or weed control at 80 g/ha [24]: 90%; pest or weed control at 80 g/ha [25]: 100% |
